According to the RepoRT retention time repository (doi:10.1021/acs.analchem.2c02893):

What was measured:
Settings in all cases: stereoisomer not certain
[1] = RP, Thermo Scientific Acclaim RSLC 120 C18, 100 × 2.1 mm, 2.2 µm, 30 °C, 0.2 mL/min, estimated dead time 1.1 min; A: water + 0.1% formic acid, pH 2.6; B: methanol + 0.1% formic acid, pH 2.6; gradient (min/%B) 0/10 4/50 17/95 25/95 25.1/10 30/10
[2] = RP, Waters ACQUITY UPLC BEH C18, 100 × 2.1 mm, 1.7 µm, 30 °C, 0.35 mL/min, estimated dead time 0.63 min; A: water + 0.01% formic acid + 5 mM ammonium formate, pH 3.71; B: acetonitrile + 0.01% formic acid, pH 3.71; gradient (min/%B) 0/10 3/10 22/100 30/100 30.1/10 40/10
[3] = RP, Waters ACQUITY UPLC BEH C18, 100 × 2.1 mm, 1.7 µm, 35 °C, 0.35 mL/min, estimated dead time 0.63 min; A: water + 0.01% formic acid + 5 mM ammonium formate, pH 3.71; B: acetonitrile + 0.01% formic acid, pH 3.71; gradient (min/%B) 0/5 0.5/5 16/95 16.1/99 19/99 19.1/5 21/5
[4] = RP, Thermo Scientific Acclaim RSLC 120 C18, 100 × 2.1 mm, 2.2 µm, 30 °C, 0.2 mL/min, estimated dead time 1.1 min; A: 90% water + 10% methanol + 0.01% formic acid + 5 mM ammonium formate, pH 3.61; B: methanol + 0.01% formic acid + 5 mM ammonium formate, pH 3.61; gradient (min/%B) 0/1 1/1 2/39 13/99.9 15/99.9 15.1/1 20.1/1

LC retention time [4] [min] | SMILES | also measured
4.86 | COc1cc(C(=O)NCc2ccc(OCCN(C)C)cc2)cc(OC)c1OC [Trimethobenzamide] | –
8.49 | CNCC(C)CN1c2ccccc2CCc2ccccc21 (configuration not stated) [Trimipramine-Nor] | –
8.31 | CC(CN(C)C)CN1c2ccccc2CCc2ccccc21 (configuration not stated) [Trimipramine] | –
6.28 | Cc1ccc(C(=CCN2CCCC2)c2ccccn2)cc1 [Triprolidine] | –
8.51 | CNCCC=C1c2ccccc2CCc2ccccc21 [Triptyline-Nor] | –
6.03 | CCN(Cc1ccncc1)C(=O)C(CO)c1ccccc1 (configuration not stated) [Tropicamide] | –
5.09 | CN1C2CCC1CC(OC(=O)c1c[nH]c3ccccc13)C2 (configuration not stated) [Tropisetron] | –
4.77 | NC(Cc1cc(I)c(O)c(I)c1)C(=O)O (configuration not stated) [Tyrosine-3.5-Diiodo] | –
7.37 | Cc1onc(-c2ccccc2)c1-c1ccc(S(N)(=O)=O)cc1 [Valdecoxib] | –
9.21 | CCCCC(=O)N(Cc1ccc(-c2ccccc2-c2nn[nH]n2)cc1)C(C(=O)O)C(C)C (configuration not stated) [Valsartan] | –
4.91 | CNCC(c1ccc(O)cc1)C1(O)CCCCC1 [Venlafaxine-D L-N O-Didesmethyl] | –
4.76 | CN(C)CC(c1ccc(O)cc1)C1(O)CCCCC1 (configuration not stated) [Venlafaxine-O-Desmethyl (Desvenlafaxine)] | –
5.04 | CCC12CCCN3CCc4c(n(c5ccccc45)C(O)(C(=O)OC)C1)C32 (configuration not stated) [Vincamine] | –
9.35 | CC(=O)CC(c1ccccc1)c1c(O)c2ccccc2oc1=O (configuration not stated) [Warfarin] | –
7.36 | Cc1cccc(C)c1NC(=O)c1cc(S(N)(=O)=O)c(Cl)cc1O [Xipamide] | –
5.08 | COC(=O)C1C(O)CCC2CN3CCc4c([nH]c5ccccc45)C3CC21 (configuration not stated) [Yohimbine] | –
6.56 | CN(C)CC=C(c1ccc(Br)cc1)c1cccnc1 [Zimelidine] | –
8.03 | O=C1Cc2cc(CCN3CCN(c4nsc5ccccc45)CC3)c(Cl)cc2N1 [Ziprasidone] | –
4.53 | NS(=O)(=O)Cc1noc2ccccc12 [Zonisamide] | –
9.04 | CN(C)CCOC1=Cc2ccccc2Sc2ccc(Cl)cc21 [Zotepine] | –

Continued, molecule first:

SMILES | LC retention time [4] [min] | also measured
CC(C)(C)NCC(O)c1ccc(O)c(CO)c1 (configuration not stated) [Albuterol/Salbutamol] | – | LC retention time [1]: 2.71 min; LC retention time [2]: 1.28 min; LC retention time [3]: 1.92 min
Nc1ncn[nH]1 [Amitrole] | 1.44 | LC retention time [2]: 0.91 min; LC retention time [3]: 0.88 min
NCC(O)c1ccccc1 (configuration not stated) [Apophedrin (Phenylethanolamine)] | – | LC retention time [1]: 2.34 min; LC retention time [2]: 1.38 min; LC retention time [3]: 1.65 min
CCC(C)C1OC2(C=CC1C)CC1CC(CC=C(C)C(OC3CC(OC)C(OC4CC(OC)C(O)C(C)O4)C(C)O3)C(C)C=CC=C3COC4C(O)C(C)=CC(C(=O)O1)C34O)O2 (configuration not stated) [Avermectin] | – | LC retention time [1]: 18.7 min; LC retention time [2]: 18.8 min; LC retention time [3]: 14.6 min
O=c1[nH]c2ccccc2s1 [Benzothiazole-2-OH] | – | LC retention time [1]: 7.4 min; LC retention time [2]: 7.78 min; LC retention time [3]: 5.76 min
C[N+](C)(C)CCCl [Chlormequate] | – | LC retention time [2]: 0.84 min; LC retention time [3]: 0.84 min
C#CCN(C)C(C)Cc1ccccc1 (configuration not stated) [Deprenyl/Selegiline] | – | LC retention time [1]: 4.32 min; LC retention time [2]: 5.98 min; LC retention time [3]: 4.53 min
NC(=O)N=C(N)N [Guanylurea] | – | LC retention time [2]: 0.83 min; LC retention time [3]: 0.86 min
NCCc1cnc[nH]1 [Histamine] | 1.58 | LC retention time [2]: 0.99 min; LC retention time [3]: 0.94 min
COc1cc(C(=O)c2cnc(N)nc2N)cc(OC)c1OC [Trimethoprim (Impurity B)] | 5.49 | –
CCCCCCCC[N+](C)(C)C [Trimethyloctylammonium] | 6.08 | –
CCOC(=O)C1CC(=O)C(=C(O)C2CC2)C(=O)C1 (configuration not stated) [Trinexapac-ethyl] | 8.45 | –
CC1(C)CCC(=Cc2ccc(Cl)cc2)C1(O)Cn1cncn1 (configuration not stated) [Triticonazole] | 10.1 | –
CCOc1c(N)c2c(c(OCC)c1OCC)C(C1c3c(cc4c(c3OC)OCO4)CCN1C)OC2=O (configuration not stated) [Tritoqualine] | 12 | –
CN(C)CCOCC(=O)NC12CC3CC(CC(C3)C1)C2 [Tromantadine] | 6.64 | –
O=C(OC1CC2CCC(C1)[N+]21CCCC1)C(O)(c1ccccc1)c1ccccc1 (configuration not stated) [Trospium] | 5.72 | –
CC(C)(C)NCC(O)c1ccccc1Cl (configuration not stated) [Tulobuterol] | 5.17 | –
CCCOc1ccc(S(=O)(=O)NCCC2CCCN2C)cc1-c1nc2c(CCC)nn(C)c2c(=O)[nH]1 (configuration not stated) [Udenafil] | 7.83 | –
CC(C)(C)C(O)C(=Cc1ccc(Cl)cc1)n1cncn1 (configuration not stated) [Uniconazole] | 10.5 | –
CC(C)C(N)C(=O)OCC(CO)OCn1cnc2c(=O)[nH]c(N)nc21 (configuration not stated) [Valganciclovir] | 2.71 | –
CNC(=O)C(C)SCCSP(=O)(OC)OC (configuration not stated) [Vamidothion] | 5.02 | –
CNC(CC(C)C)C(=O)NC1C(=O)NC(CC(N)=O)C(=O)NC2C(=O)NC3C(=O)NC(C(=O)NC(C(=O)O)c4cc(O)cc(O)c4-c4cc3ccc4O)C(O)c3ccc(c(Cl)c3)Oc3cc2cc(c3OC2OC(CO)C(O)C(O)C2OC2CC(C)(N)C(O)C(C)O2)Oc2ccc(cc2Cl)C1O (configuration not stated) [Vancomycin] | 3.26 | –
CCCc1nc(C)c2c(=O)[nH]c(-c3cc(C(=O)CN4CCN(CC)CC4)ccc3OCC)nn12 [Vardenafil-Acetyl] | 7.16 | –
CCCc1nc(C)c2c(=O)[nH]c(-c3cc(S(=O)(=O)N4CCN(CCO)CC4)ccc3OCC)nn12 [Vardenafil-Hydroxy] | 8.05 | –
CCCc1nc(C)c2c(=O)[nH]c(-c3cc(S(=O)(=O)N4CCCCC4)ccc3OCC)nn12 [Vardenafil-Pseudo] | 10.6 | –
CCCc1nc(C)c2c(=O)[nH]c(-c3cc(S(=O)(=O)N4CCN(CC)CC4)ccc3OCC)nn12 [Vardenafil] | 8.11 | –

SMILES | LC retention time [4] [min] | also measured
c1cnc2cc3c(cc2n1)C1CNCC3C1 [Varenicline] | 3.63 | –
C=C(Cl)CSC(=S)N(CC)CC [Vegadex (Sulfallate)] | 11.1 | –
COc1ccc(C(CN)C2(O)CCCCC2)cc1 [Venlafaxine- D L-N N-Didesmethyl] | 6.34 | –
CNCC(c1ccc(OC)cc1)C1(O)CCCCC1 (configuration not stated) [Venlafaxine-N-Desmethyl (norvenlafaxine)] | 6.18 | –
COc1ccc(C(C[N+](C)(C)[O-])C2(O)CCCCC2)cc1 (configuration not stated) [Venlafaxine-N-oxide] | 6.94 | –
COc1ccc(C(CN(C)C)C2(O)CCCCC2)cc1 (configuration not stated) [Venlafaxine] | 6.14 | –
COc1ccc(CCNCCCC(C#N)(c2ccc(OC)c(OC)c2)C(C)C)cc1OC (configuration not stated) [Verapamil-Nor] | 6.96 | –
COc1ccc(CCN(C)CCCC(C#N)(c2ccc(OC)c(OC)c2)C(C)C)cc1OC (configuration not stated) [Verapamil] | 7.03 | –
CCCSC(=O)N(CCC)CCC [Vernolate] | 11.5 | –
C=CC1(C)OC(=O)N(c2cc(Cl)cc(Cl)c2)C1=O (configuration not stated) [Vinclozolin] | 10.6 | –
COc1ccc(C(=O)c2c(C)n(CCN3CCOCC3)c3ccccc23)cc1 [WIN-48-098] | 9.55 | –
Cc1c(C(=O)c2cccc3ccccc23)c2cccc3c2n1C(CN1CCOCC1)CO3 (configuration not stated) [WIN-55-212-2] | 10.9 | –
CC(F)CCCn1cc(C(=O)C2C(C)(C)C2(C)C)c2ccccc21 (stereo not drawn) [XLR-11 Isomer] | 11.6 | –
CC1(C)C(C(=O)c2cn(CCCCCF)c3ccccc23)C1(C)C [XLR-11] | 11.9 | –
CC1(C)C(C(=O)c2cn(CCCC(F)(F)F)c3ccccc23)C1(C)C [XLR-12] | 12 | –
CNC(=O)Oc1cc(C)cc(C)c1 [XMC (Group of peaks!)] | 7.78 | –
CN(CCO)CC(O)Cn1cnc2c1c(=O)n(C)c(=O)n2C (configuration not stated) [Xanthinol] | 2.99 | –
Cc1cc(C(C)(C)C)cc(C)c1CC1=NCCN1 [Xylometazoline] | 7.75 | –
CCN(C(C)=O)c1cccc(-c2ccnc3c(C#N)cnn23)c1 [Zaleplon] | 6.61 | –
Cc1cn(C2CC(N=[N+]=[N-])C(CO)O2)c(=O)[nH]c1=O (configuration not stated) [Zidovudine] | 4.56 | –
CN(C)CCc1c[nH]c2ccc(CC3COC(=O)N3)cc12 (configuration not stated) [Zolmitriptan] | 3.61 | –
Cc1ccc(-c2nc3ccc(C)cn3c2CC(=O)N(C)C)cc1 [Zolpidem] | 5.8 | –
CN1CCN(C(=O)OC2c3nccnc3C(=O)N2c2ccc(Cl)cn2)CC1 (configuration not stated) [Zopiclone] | 4.89 | –
CCC(C)(NC(=O)c1cc(Cl)c(C)c(Cl)c1)C(=O)CCl (configuration not stated) [Zoxamide] | 11.1 | –
CCCc1nn(C)c2c(=S)nc(-c3cc(C(=S)N4CCN(C)CC4)ccc3OCC)[nH]c12 [carbodenafil-Dithio-desmethyl] | 11.5 | –
